Laboratory results from PubChem BioAssay AID248 (DTP/NCI, 2004).
Values joined by “and” are separate entries in the source; they are usually repeats but may differ in a detail not shown here. Equal entries are not always repeated. Toxic doses and inconclusive results are not listed. Cut-off read from the data, not from the text of the source: active = T/C of 150% or more; inactive = T/C below 125%.

System: L1210 leukemia ip in BDF1 mice, survival T/C
Experiment: NCI In Vivo Anticancer Drug Screen. Data for tumor model L1210 Leukemia (intraperitoneal) in B6D2F1 (BDF1) mice
Settings: endpoint: mean survival time, higher = longer survival
Method in brief: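 Antitumor effect is assessed in tumor-bearing animals. Survival in the compound arm is compared with a vehicle-dosed control arm and expressed as their quotient.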

[1] = dose: 3.12 mg/kg/injection, schedule: Q01DX009 (ip), vehicle: saline
[2] = dose: 6.25 mg/kg/injection, schedule: Q01DX009 (ip), vehicle: saline
[3] = dose: 12.5 mg/kg/injection, schedule: Q01DX009 (ip), vehicle: saline
[4] = dose: 25.0 mg/kg/injection, schedule: Q01DX001 (ip), vehicle: saline
[5] = dose: 25.0 mg/kg/injection, schedule: Q01DX009 (ip), vehicle: saline
[6] = dose: 50.0 mg/kg/injection, schedule: Q01DX001 (ip), vehicle: saline

Measured: T/C

Cc1ncc(C(O)(c2ccccc2)C(C)C)n1Cc1ccccc1 (configuration not stated)
inactive: dose: 100.0 mg/kg/injection, schedule: Q01DX001 (ip), vehicle: saline with Tween-80 94 % of control | dose: 100.0 mg/kg/injection, schedule: Q01DX009 (ip), vehicle: saline with Tween-80 95 % of control and 96 % of control | dose: 100.0 mg/kg/injection, schedule: Q04DX002 (ip), vehicle: saline with Tween-80 95 % of control and 97 % of control | dose: 100.0 mg/kg/injection, schedule: Q04DX003 (ip), vehicle: saline with Tween-80 101 % of control | dose: 200.0 mg/kg/injection, schedule: Q01DX001 (ip), vehicle: saline with Tween-80 92 % of control | dose: 200.0 mg/kg/injection, schedule: Q01DX009 (ip), vehicle: saline with Tween-80 95 % of control and 108 % of control | dose: 200.0 mg/kg/injection, schedule: Q04DX002 (ip), vehicle: saline with Tween-80 93 % of control and 113 % of control | dose: 200.0 mg/kg/injection, schedule: Q04DX003 (ip), vehicle: saline with Tween-80 97 % of control | dose: 400.0 mg/kg/injection, schedule: Q01DX001 (ip), vehicle: saline with Tween-80 94 % of control | dose: 400.0 mg/kg/injection, schedule: Q01DX009 (ip), vehicle: saline with Tween-80 102 % of control | dose: 400.0 mg/kg/injection, schedule: Q04DX002 (ip), vehicle: saline with Tween-80 98 % of control and 103 % of control | dose: 400.0 mg/kg/injection, schedule: Q04DX003 (ip), vehicle: saline with Tween-80 101 % of control

CCOC(C[N+](C)(C)CCC[N+](C)(C)CC(OCC)OCC)OCC
inactive: dose: 100.0 mg/kg/injection, schedule: Q01DX001 (ip), vehicle: saline 111 % of control | dose: 200.0 mg/kg/injection, schedule: Q01DX001 (ip), vehicle: saline 96 % of control | dose: 400.0 mg/kg/injection, schedule: Q01DX001 (ip), vehicle: saline 111 % of control

C[CH2][Sn]([CH2]C)([O]S(=O)(=O)CC12CCC(CC1=O)C2(C)C)[O]S(=O)(=O)CC12CCC(CC1=O)C2(C)C
inactive: [1] 106 % of control | dose: 5.5 mg/kg/injection, schedule: Q01DX009 (ip), vehicle: saline 109 % of control | [2] 106 % of control and 107 % of control | dose: 6.25 mg/kg/injection, schedule: Q04DX003 (ip), vehicle: saline 112 % of control | dose: 8.2 mg/kg/injection, schedule: Q01DX009 (ip), vehicle: saline 118 % of control | dose: 11.0 mg/kg/injection, schedule: Q04DX003 (ip), vehicle: saline 113 % of control | [3] 106 % of control and 120 % of control | dose: 12.5 mg/kg/injection, schedule: Q04DX002 (ip), vehicle: saline 104 % of control | dose: 12.5 mg/kg/injection, schedule: Q04DX003 (ip), vehicle: saline 114 % of control | dose: 16.0 mg/kg/injection, schedule: Q04DX003 (ip), vehicle: saline 104 % of control | dose: 18.0 mg/kg/injection, schedule: Q01DX009 (ip), vehicle: saline 117 % of control | dose: 22.0 mg/kg/injection, schedule: Q04DX002 (ip), vehicle: saline 107 % of control | [4] 109 % of control | [5] 112 % of control and 115 % of control and 120 % of control | dose: 25.0 mg/kg/injection, schedule: Q04DX002 (ip), vehicle: saline 106 % of control | dose: 25.0 mg/kg/injection, schedule: Q04DX003 (ip), vehicle: saline 112 % of control and 117 % of control | dose: 35.0 mg/kg/injection, schedule: Q04DX002 (ip), vehicle: saline 116 % of control | dose: 35.0 mg/kg/injection, schedule: Q04DX003 (ip), vehicle: saline 113 % of control | dose: 45.0 mg/kg/injection, schedule: Q01DX001 (ip), vehicle: saline 120 % of control | [6] 114 % of control | dose: 50.0 mg/kg/injection, schedule: Q04DX003 (ip), vehicle: saline 102 % of control | dose: 55.0 mg/kg/injection, schedule: Q04DX003 (ip), vehicle: saline 112 % of control

C=CC(COC(C)=O)N1CC1 (configuration not stated)
inactive: dose: 1.0 mg/kg/injection, schedule: Q01DX Z (ip), vehicle: carboxymethylcellulose (CMC) 100 % of control | dose: 2.0 mg/kg/injection, schedule: Q01DX Z (ip), vehicle: carboxymethylcellulose (CMC) 92 % of control | dose: 4.0 mg/kg/injection, schedule: Q01DX Z (ip), vehicle: carboxymethylcellulose (CMC) 104 % of control | dose: 5.0 mg/kg/injection, schedule: Q01DX Z (oral), vehicle: saline 101 % of control | dose: 7.5 mg/kg/injection, schedule: Q01DX Z (ip), vehicle: saline 104 % of control | dose: 7.5 mg/kg/injection, schedule: Q01DX Z (oral), vehicle: saline 104 % of control | dose: 8.0 mg/kg/injection, schedule: Q01DX Z (ip), vehicle: carboxymethylcellulose (CMC) 101 % of control | dose: 10.0 mg/kg/injection, schedule: Q01DX Z (oral), vehicle: saline 104 % of control | dose: 12.0 mg/kg/injection, schedule: Q01DX Z (ip), vehicle: carboxymethylcellulose (CMC) 110 % of control | dose: 15.0 mg/kg/injection, schedule: Q01DX Z (ip), vehicle: saline 121 % of control | dose: 15.0 mg/kg/injection, schedule: Q01DX Z (oral), vehicle: saline 105 % of control | dose: 20.0 mg/kg/injection, schedule: Q01DX Z (oral), vehicle: saline 114 % of control | dose: 25.0 mg/kg/injection, schedule: Q01DX Z (ip), vehicle: carboxymethylcellulose (CMC) 96 % of control | dose: 30.0 mg/kg/injection, schedule: Q01DX Z (ip), vehicle: saline 97 % of control | dose: 40.0 mg/kg/injection, schedule: Q01DX Z (oral), vehicle: saline 116 % of control | dose: 60.0 mg/kg/injection, schedule: Q01DX Z (oral), vehicle: saline 100 % of control

Clc1ccc2c(c1)C1c3ccccc3C2C2c3ccccc3C1c1ccccc12 (configuration not stated)
inactive: dose: 50.0 mg/kg/injection, schedule: Q04DX002 (ip), vehicle: Klucel (hydroxypropylcellulose) (HPC) 117 % of control | dose: 100.0 mg/kg/injection, schedule: Q04DX002 (ip), vehicle: Klucel (hydroxypropylcellulose) (HPC) 102 % of control | dose: 200.0 mg/kg/injection, schedule: Q04DX002 (ip), vehicle: Klucel (hydroxypropylcellulose) (HPC) 95 % of control and 88 % of control | dose: 400.0 mg/kg/injection, schedule: Q04DX002 (ip), vehicle: Klucel (hydroxypropylcellulose) (HPC) 88 % of control

Cc1c2cccc(Sc3ccccc3)c2c2c3c(cccc13)[S+](c1ccccc1)C2 (configuration not stated)
inactive: dose: 1.56 mg/kg/injection, schedule: Q01DX009 (ip), vehicle: saline 104 % of control | [1] 101 % of control | [2] 105 % of control | dose: 12.5 mg/kg/injection, schedule: Q01DX001 (ip), vehicle: saline with Tween-80 97 % of control | dose: 12.5 mg/kg/injection, schedule: Q01DX001 (ip), vehicle: saline 100 % of control | [3] 91 % of control | [4] 93 % of control | dose: 50.0 mg/kg/injection, schedule: Q01DX001 (ip), vehicle: saline with Tween-80 95 % of control | [6] 86 % of control

CCC(C)C(CCCN1CCOCC1)(CNC(=O)CN(CC)CC)c1cccc2ccccc12 (configuration not stated)
inactive: [5] 94 % of control | dose: 50.0 mg/kg/injection, schedule: Q01DX009 (ip), vehicle: saline 97 % of control | dose: 100.0 mg/kg/injection, schedule: Q01DX009 (ip), vehicle: saline 91 % of control | dose: 100.0 mg/kg/injection, schedule: Q04DX003 (ip), vehicle: saline 102 % of control

Nc1nnc(N)c2nc(-c3ccccc3)c(-c3ccccc3)nc12
inactive: dose: 100.0 mg/kg/injection, schedule: Q01DX009 (ip), vehicle: Klucel (hydroxypropylcellulose) (HPC) 101 % of control | dose: 200.0 mg/kg/injection, schedule: Q01DX009 (ip), vehicle: Klucel (hydroxypropylcellulose) (HPC) 101 % of control
